Reference: patent US10988523B2, “Modified lipidated Relaxin B chain peptides and their therapeutic use” (Sanofi, priority 2018, dated 2021)
*1 amine or outer side, *2 acyl side, *3 side chain or, on linkers, in order; H or OH if unused. Where a SMILES comes first, the peptide text is derived from it. Side-chain parts run from the residue outwards. [ ]: non-standard residue; d: D form. The star is where a group is joined. X13 = CCCCCCCCCCCCCCCC(=O)N[C@@H](CCC(=O)N[C@@H](CCC(=O)N[C@@H](CCC(=O)NCCCC[C@H](NC(=O)COCC(=O)NCCCOCCOCCOCCCN*)C(N)=O)C(=O)O)C(=O)O)C(=O)O; X10 = CCCCCCCCCCCCCCCC(=O)N[C@@H](CCC(=O)N[C@@H](CCC(=O)N[C@@H](CCC(=O)NCCCOCCOCCOCCCNC(=O)CCC(=O)NCCCOCCOCCOCCCN*)C(=O)O)C(=O)O)C(=O)O; PEG12 = NCCOCCOCCOCCOCCOCCOCCOCCOCCOCCOCCOCCOCCC(=O)O; γGlu = O=C(O)[C@H](CCC(=O)[*:2])N[*:1]; Stearoyl = CCCCCCCCCCCCCCCCCC(=O)*; Palmitoyl = CCCCCCCCCCCCCCCC(=O)*; αMeF = C[C@](N)(Cc1ccccc1)C(=O)O; Suc = O=C(CCC(=O)[*:2])[*:1]; αMeK = C[C@](N)(CCCCN)C(=O)O; Nle = CCCC[C@H](N)C(=O)O; AEEA = NCCOCCOCC(=O)O; Aib = CC(C)(N)C(=O)O

Target: T1, RXFP1 (Homo sapiens, UniProt Q9HBX9)
T1 construct: OVCAR5 cells expressing endogenous RXFP1; endogenous in cells; host or cells: OVCAR5 cells
T1 sequence (Q9HBX9 1-757): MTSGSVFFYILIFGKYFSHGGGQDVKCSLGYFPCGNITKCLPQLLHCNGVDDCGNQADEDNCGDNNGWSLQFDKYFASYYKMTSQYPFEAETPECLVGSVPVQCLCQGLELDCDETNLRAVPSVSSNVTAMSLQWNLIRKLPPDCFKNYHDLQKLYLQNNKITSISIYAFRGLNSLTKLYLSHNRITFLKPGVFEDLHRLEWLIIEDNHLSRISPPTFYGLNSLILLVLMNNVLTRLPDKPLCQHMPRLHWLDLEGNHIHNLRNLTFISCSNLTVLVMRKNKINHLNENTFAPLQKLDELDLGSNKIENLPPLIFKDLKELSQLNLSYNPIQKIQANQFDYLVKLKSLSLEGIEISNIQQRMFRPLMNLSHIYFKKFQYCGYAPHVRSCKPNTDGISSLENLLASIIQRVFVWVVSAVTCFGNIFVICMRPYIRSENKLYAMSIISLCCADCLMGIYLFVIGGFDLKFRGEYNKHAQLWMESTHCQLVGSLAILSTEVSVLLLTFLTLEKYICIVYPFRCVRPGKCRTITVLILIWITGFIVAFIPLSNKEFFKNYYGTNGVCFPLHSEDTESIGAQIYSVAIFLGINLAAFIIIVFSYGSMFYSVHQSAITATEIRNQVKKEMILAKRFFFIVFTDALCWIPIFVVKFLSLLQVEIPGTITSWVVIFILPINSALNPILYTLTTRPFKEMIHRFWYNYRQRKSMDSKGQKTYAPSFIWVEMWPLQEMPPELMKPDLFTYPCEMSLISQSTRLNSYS
Assay: OVCAR5 cAMP assay (HTRF), RXFP1 agonist activity
Assay type: cell-based
Details: for Emax: OVCAR-5, maximal cAMP relative to H2-relaxin maximum (100%), read-out: EMax, OVCAR 5 cells (cAMP); for EC50: OVCAR5 cells, cAMP HTRF, read-out: EC50 (nM), OVCAR 5 cells (cAMP)
Outline: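 OVCAR5 cells (endogenous RXFP1) pretreated 40 min at 37° C with 1 mM IBMX, then exposed to peptides in serum-free medium for 30 min at 37° C. Lysate cAMP read by HTRF; EC50 from variable-slope sigmoidal fit; Emax as % of H2-relaxin maximal cAMP in same run.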

Row | Structure (SMILES) | Emax [%] | EC50 [nM]
1 | CCCCCCCCCCCCCCCCCC(=O)N[C@@H](CCC(=O)N[C@@H](CCC(=O)N[C@@H](CCC(=O)NCCCC[C@H](NC(=O)CCOCCOCCOCCOCCOCCOCCOCCOCCOCCOCCOCCOCCNC(=O)[C@H](CCCCN)NC(=O)[C@H](CCCCN)NC(=O)[C@H](CCCNC(=N)N)NC(=O)C(C)(C)NC(=O)[C@H](CO)NC(=O)[C@H](Cc1c[nH]c2ccccc12)NC(=O)[C@@H](NC(=O)[C@H](CO)NC(=O)[C@H](CCCC)NC(=O)CNC(=O)[C@H](CCC(=O)O)NC(=O)C(C)(C)NC(=O)C(C)(C)NC(=O)[C@@H](NC(=O)[C@H](CCC(N)=O)NC(=O)[C@H](C)NC(=O)[C@H](CCCNC(=N)N)NC(=O)[C@@H](NC(=O)[C@H](CCCCN)NC(=O)[C@H](CCC(=O)O)NC(=O)[C@H](CCCNC(=N)N)NC(=O)CNC(=O)[C@H](CCC(=O)O)NC(=O)[C@H](CC(C)C)NC(C)=O)C(C)C)[C@@H](C)CC)[C@@H](C)O)C(N)=O)C(=O)O)C(=O)O)C(=O)O [compound 31] (Ac-LEGREKVRAQI[Aib][Aib]EG[Nle]STWS[Aib]RKK[PEG12]K([γGlu-γGlu-γGlu-Stearoyl])-NH2) | 86 | –
2 | CCCCCCCCCCCCCCCCCC(=O)NCCOCCOCC(=O)NCCOCCOCC(=O)NCCOCCOCC(=O)NCCCC[C@H](NC(=O)[C@H](CCCCNC(C)=O)NC(=O)[C@H](CCCCN)NC(=O)[C@H](CCCNC(=N)N)NC(=O)C(C)(C)NC(=O)[C@H](CO)NC(=O)[C@H](Cc1c[nH]c2ccccc12)NC(=O)[C@@H](NC(=O)[C@H](CO)NC(=O)[C@H](CCCC)NC(=O)CNC(=O)[C@H](CCC(=O)O)NC(=O)C(C)(C)NC(=O)C(C)(C)NC(=O)[C@@H](NC(=O)[C@H](CCC(N)=O)NC(=O)[C@H](C)NC(=O)[C@H](CCCNC(=N)N)NC(=O)[C@@H](NC(=O)[C@H](CCCCN)NC(=O)[C@H](CCC(=O)O)NC(=O)[C@H](CCCNC(=N)N)NC(=O)CNC(=O)[C@H](CCC(=O)O)NC(=O)[C@H](CC(C)C)NC(C)=O)C(C)C)[C@@H](C)CC)[C@@H](C)O)C(N)=O [compound 52] (Ac-LEGREKVRAQI[Aib][Aib]EG[Nle]STWS[Aib]RKK(Ac)K([AEEA-AEEA-AEEA-Stearoyl])-NH2) | 98 | –
3 | CCCCCCCCCCCCCCCC(=O)N[C@@H](CCC(=O)N[C@@H](CCC(=O)N[C@@H](CCC(=O)NCCCC[C@H](NC(=O)COCC(=O)NCCCOCCOCCOCCCNC(=O)[C@H](CCCCNC(C)=O)NC(=O)[C@H](CCCCN)NC(=O)[C@H](CCCNC(=N)N)NC(=O)C(C)(C)NC(=O)[C@H](CO)NC(=O)[C@H](Cc1c[nH]c2ccccc12)NC(=O)[C@@H](NC(=O)[C@H](CO)NC(=O)[C@H](CCC(N)=O)NC(=O)CNC(=O)[C@H](CCC(=O)O)NC(=O)C(C)(C)NC(=O)C(C)(C)NC(=O)[C@@H](NC(=O)[C@H](CCCCNC(C)=O)NC(=O)[C@H](C)NC(=O)[C@H](CCCNC(=N)N)NC(=O)[C@@H](NC(=O)[C@H](CCCCN)NC(=O)[C@H](CCC(=O)O)NC(=O)[C@H](CCCNC(=N)N)NC(=O)CNC(=O)[C@H](CCC(=O)O)NC(=O)[C@H](CC(C)C)NC(C)=O)C(C)C)[C@@H](C)CC)[C@@H](C)O)C(N)=O)C(=O)O)C(=O)O)C(=O)O [compound 176] (Ac-LEGREKVRAK(Ac)I[Aib][Aib]EGQSTWS[Aib]RKK(Ac)-X13) | 90 | –

Second part, the compound after the results:

Row | Emax [%] | EC50 [nM] | Structure (SMILES)
4 | 100 | 0.05 | CCCCCCCCCCCCCCCC(=O)N[C@@H](CCC(=O)N[C@@H](CCC(=O)NCCCC[C@H](NC(=O)CC[C@H](NC(=O)CC[C@H](NC(=O)COCCOCCNC(=O)COCCOCCNC(=O)COCCOCCNC(=O)COCCOCCNC(=O)[C@H](CCCCNC(C)=O)NC(=O)[C@H](C)NC(=O)[C@H](CCCNC(=N)N)NC(=O)[C@](C)(CCCCN)NC(=O)[C@H](CO)NC(=O)[C@H](Cc1ccccc1)NC(=O)[C@@H](NC(=O)[C@H](CO)NC(=O)[C@H](CCC(N)=O)NC(=O)CNC(=O)[C@H](CCC(=O)O)NC(=O)C(C)(C)NC(=O)C(C)(C)NC(=O)[C@@H](NC(=O)[C@H](CCCCNC(C)=O)NC(=O)[C@H](C)NC(=O)[C@H](CCCNC(=N)N)NC(=O)[C@@H](NC(=O)[C@H](CCCCN)NC(=O)[C@H](CCC(=O)O)NC(=O)[C@H](CCCNC(=N)N)NC(=O)CNC(=O)[C@H](CCC(=O)O)NC(=O)[C@H](CC(C)C)NC(C)=O)C(C)C)[C@@H](C)CC)[C@@H](C)O)C(=O)O)C(=O)O)C(N)=O)C(=O)O)C(=O)O [compound 185] (Ac-LEGREKVRAK(Ac)I[Aib][Aib]EGQSTFS[αMeK]RAK(Ac)[AEEA][AEEA][AEEA][AEEA][γGlu][γGlu]K([γGlu-γGlu-Palmitoyl])-NH2)
5 | 92 | 0.26 | CCCCCCCCCCCCCCCC(=O)N[C@@H](CCC(=O)N[C@@H](CCC(=O)N[C@@H](CCC(=O)NCCCOCCOCCOCCCNC(=O)CCC(=O)NCCCOCCOCCOCCCNC(=O)CCC(=O)NCCCC[C@H](NC(=O)[C@H](CCCCNC(C)=O)NC(=O)[C@H](CCCCN)NC(=O)[C@H](CCCNC(=N)N)NC(=O)C(C)(C)NC(=O)[C@H](CO)NC(=O)[C@H](Cc1c[nH]c2ccccc12)NC(=O)[C@@H](NC(=O)[C@H](CO)NC(=O)[C@H](CCCC)NC(=O)CNC(=O)[C@H](CCC(=O)O)NC(=O)C(C)(C)NC(=O)C(C)(C)NC(=O)[C@@H](NC(=O)[C@H](CCCCNC(C)=O)NC(=O)[C@H](C)NC(=O)[C@H](CCCNC(=N)N)NC(=O)[C@@H](NC(=O)[C@H](CCCCN)NC(=O)[C@H](CCC(=O)O)NC(=O)[C@H](CCCNC(=N)N)NC(=O)CNC(=O)[C@H](CCC(=O)O)NC(=O)[C@H](CC(C)C)NC(C)=O)C(C)C)[C@@H](C)CC)[C@@H](C)O)C(N)=O)C(=O)O)C(=O)O)C(=O)O [compound 166] (Ac-LEGREKVRAK(Ac)I[Aib][Aib]EG[Nle]STWS[Aib]RKK(Ac)K([Suc-X10])-NH2)
6 | 91 | – | CCCCCCCCCCCCCCCC(=O)N[C@@H](CCC(=O)NCCCC[C@H](NC(=O)CC[C@H](NC(=O)CC[C@H](NC(=O)CC[C@H](NC(=O)COCCOCCNC(=O)COCCOCCNC(=O)COCCOCCNC(=O)COCCOCCNC(=O)[C@H](CCCCNC(C)=O)NC(=O)[C@H](CCCCN)NC(=O)[C@H](CCCNC(=N)N)NC(=O)[C@](C)(CCCCN)NC(=O)[C@H](CO)NC(=O)[C@](C)(Cc1ccccc1)NC(=O)[C@@H](NC(=O)[C@H](CO)NC(=O)[C@H](CCCC)NC(=O)CNC(=O)[C@H](CCC(=O)O)NC(=O)C(C)(C)NC(=O)C(C)(C)NC(=O)[C@@H](NC(=O)[C@H](CCCCNC(C)=O)NC(=O)[C@H](C)NC(=O)[C@H](CCCNC(=N)N)NC(=O)[C@@H](NC(=O)[C@H](CCCCN)NC(=O)[C@H](CCC(=O)O)NC(=O)[C@H](CCCNC(=N)N)NC(=O)CNC(=O)[C@H](CCC(=O)O)NC(=O)[C@H](CC(C)C)NC(C)=O)C(C)C)[C@@H](C)CC)[C@@H](C)O)C(=O)O)C(=O)O)C(=O)O)C(N)=O)C(=O)O [compound 152] (Ac-LEGREKVRAK(Ac)I[Aib][Aib]EG[Nle]ST[αMeF]S[αMeK]RKK(Ac)[AEEA][AEEA][AEEA][AEEA][γGlu][γGlu][γGlu]K([γGlu-Palmitoyl])-NH2)
7 | 86 | – | CCCCCCCCCCCCCCCC(=O)N[C@@H](CCC(=O)N[C@@H](CCC(=O)N[C@@H](CCC(=O)N[C@@H](CCC(=O)NCCOCCOCC(=O)NCCOCCOCC(=O)NCCOCCOCC(=O)NCCOCCOCC(=O)NCCCC[C@H](NC(=O)[C@H](CCCCNC(C)=O)NC(=O)[C@H](CCCCN)NC(=O)[C@H](CCCNC(=N)N)NC(=O)C(C)(C)NC(=O)[C@H](CO)NC(=O)[C@H](Cc1ccccc1)NC(=O)[C@@H](NC(=O)[C@H](CO)NC(=O)[C@H](CCCC)NC(=O)CNC(=O)[C@H](CCC(=O)O)NC(=O)C(C)(C)NC(=O)C(C)(C)NC(=O)[C@@H](NC(=O)[C@H](CCCCNC(C)=O)NC(=O)[C@H](C)NC(=O)[C@H](CCCNC(=N)N)NC(=O)[C@@H](NC(=O)[C@H](CCCCN)NC(=O)[C@H](CCC(=O)O)NC(=O)[C@H](CCCNC(=N)N)NC(=O)CNC(=O)[C@H](CCC(=O)O)NC(=O)[C@H](CC(C)C)NC(C)=O)C(C)C)[C@@H](C)CC)[C@@H](C)O)C(N)=O)C(=O)O)C(=O)O)C(=O)O)C(=O)O [compound 147] (Ac-LEGREKVRAK(Ac)I[Aib][Aib]EG[Nle]STFS[Aib]RKK(Ac)K([AEEA-AEEA-AEEA-AEEA-γGlu-γGlu-γGlu-γGlu-Palmitoyl])-NH2)
